Values of other authors, collected in patent US9125860B2, “Phosphate free oral care compositions based on magnolia antibacterial agent” (Colgate-Palmolive Company, priority 2010, dated 2015).

Tested on: S. mutans, F. nucleatum, V. parvula, A. naslundii, P. gingivitis
Conditions: representative oral bacteria; values not given

| Compound | bactericidal properties in MIC test, in words |
| --- | --- |
| propylmagnolol | demonstrated bactericidal properties |
| CCCc1ccc(O)c(-c2cc(CCC)ccc2O)c1 [tetrahydromagnolol] | demonstrated bactericidal properties |
| CCCCc1ccc(O)c(-c2cc(CCCC)ccc2O)c1 [butylmagnolol] | demonstrated bactericidal properties |
| butylhonokiol | demonstrated bactericidal properties |
| C=CCc1ccc(O)c(-c2ccc(O)c(CC=C)c2)c1 [honokiol] | demonstrated bactericidal properties |
| CC(C)c1ccc(O)c(-c2cc(C(C)C)ccc2O)c1 [isopropylmagnolol] | demonstrated bactericidal properties |
| C=CCc1ccc(O)c(-c2cc(CC=C)ccc2O)c1 [magnolol] | demonstrated bactericidal properties |
| isopropylhonokiol | demonstrated bactericidal properties |
| propylhonokiol | demonstrated bactericidal properties |
| CCCc1ccc(O)c(-c2ccc(O)c(CCC)c2)c1 [tetrahydrohonokiol] | demonstrated bactericidal properties |
